Measurements: patent publication US8367720B2 (Panorama Research Inc., priority 2007, dated 2013)
Read-outs that look alike come from different tables or passages of the source.

How the values were obtained:
L1210 leukemia cells = experiment: In vitro antitumor activity to L1210 leukemia cells (MTT); type: cell-based; settings: for IC50: Mus musculus
Method: The cells were cultured in an incubator at 37° C., 5% CO2 and saturated humidity for 48 h. Then 5 mg/mL MTT (20 μL/well) was added and cultured at the same conditions for 4 h, DMSO (150 μL/well) was added, and the (570/630 nm) absorbance (A values) was measured by using micro-plate reader.

Bacillus subtilis = experiment: Inhibition zone test (holing method); type: cell-based; settings: 37° C., 24 h; compounds 0.05 mg/well, streptomycin 0.15 mg/well
Method: (§1) After being cultured at 37° C. for 24 h, the sizes of inhibition zones were measured.

Candida albicans = experiment: Inhibition zone test (holing method); type: cell-based; settings: 37° C., 24 h; compounds 0.05 mg/well, nysfungin 0.10 mg/well
Method: as §1

E. coli = experiment: Inhibition zone test (holing method); type: cell-based; settings: 37° C., 24 h; compounds 0.05 mg/well, gentamicin 0.10 mg/well
Method: as §1

Pseudomonas aeruginosa [1] = experiment: Inhibition zone test (holing method); type: cell-based; settings: 37° C., 24 h; compounds 0.05 mg/well, gentamicin 0.10 mg/well
Method: as §1

[2] = system: Staphylococcus aureus MRSA 5676; experiment: Inhibition zone test (holing method); type: cell-based; settings: 37° C., 24 h; compounds 0.05 mg/well, vancomycin 0.15 mg/well
Method: as §1

[3] = system: Staphylococcus aureus MRSA 5677; experiment: Inhibition zone test (holing method); type: cell-based; settings: 37° C., 24 h; compounds 0.05 mg/well, vancomycin 0.15 mg/well
Method: as §1

[4] = system: Staphylococcus aureus wild type; experiment: Inhibition zone test (holing method); type: cell-based; settings: 37° C., 24 h; compounds 0.05 mg/well, streptomycin 0.15 mg/well
Method: as §1

Pseudomonas aeruginosa [5] = experiment: Measurement of growth curve of Pseudomonas aeruginosa; type: cell-based; settings: 1 mM (FIG. 2)
Method: Pseudomonas aeruginosa was inoculated in LB medium, and cultured at a constant temperature of 37° C. in a shaker overnight.

[6] = system: secretion of pyocyanin by Pseudomonas aeruginosa; experiment: Measurement of pyocyanin; type: cell-based; settings: 18 h culture, A520; Andro, AL-1 1 mM; Chuanhuning, Yanhuning, Lianbizhi 10 mM (FIG. 3)
Method: Pseudomonas aeruginosa was inoculated in LB medium, then cultured at a constant temperature of 37° C. in a shaker overnight. […] The supernatant was taken and extracted in turn with chloroform and 0.2 N HCl, and A520 values were measured (Zielinshi et al., Biol. Chem. 1991, 266, 9754-9763; May et al., Clin. Microbiology Rev. 1991, 4, 191-206).

[7] = system: extracellular protease of Pseudomonas aeruginosa; experiment: Measurement of extracellular protease; type: cell-based; settings: azo-casein, A440; Andro, AL-1 1 mM; Chuanhuning, Yanhuning, Lianbizhi 10 mM (FIG. 4)
Method: Pseudomonas aeruginosa was inoculated in LB liquid, and cultured at a constant temperature of 37° C. in a shaker overnight. […] After the bacterial liquids were cultured simultaneously at 37° C. for 6 h and centrifuged, supernatant 100 μL was taken, azo-casein 5 mg was added, […] and CaCl2 10 mM were added, and then they were shaken for reaction at 37° C. for 6 h, and the reaction was terminated by adding EDTA-Na. The A440 values of the supernatants were measured (Zielinshi et al., Biol. Chem. 1991, 266, 9754-9763; May et al., Clin. Microbiology Rev. 1991, 4, 191-206).

macrophages = settings: read-out: IC50, inhibition of cell division (C5α induced, macrophages); cited from earlier work
MCF-7 breast cancer = settings: 100 mg/kg, mice, hollow fiber system; cited from earlier work
B16F0 melanoma = settings: orally 200 mg/kg, twice per day; cited from earlier work
HT-29 human colon cancer = settings: orally 200 mg/kg, twice per day; cited from earlier work
L1210 cells = type: cell-based; settings: 10 μM, after 12 h
Method: The cells were cultured in an incubator at 37° C., 5% CO2 and saturated humidity. The culture medium was removed, the cells were washed with PBS twice, fixed at −20° C. overnight. Then the cells were centrifuged again, washed with PBS to remove ethanol, cultured with RNase A (200 μg/mL, Sigma) at 37° C. for 1 h, stained with PI (50 μg/mL, Sigma) in dark for 30 min, and detected by using a flow cytometer.

[8] = system: Staphylococcus aureus wild type; experiment: Test of minimal inhibitory concentration (MIC); type: cell-based; settings: two-fold dilution, 37° C., 24 h, absorbance 595 nm
MRSA5676 = experiment: Test of minimal inhibitory concentration (MIC); type: cell-based, Staphylococcus aureus; settings: two-fold dilution, 37° C., 24 h, absorbance 595 nm
MRSA5677 = experiment: Test of minimal inhibitory concentration (MIC); type: cell-based, Staphylococcus aureus; settings: two-fold dilution, 37° C., 24 h, absorbance 595 nm
Pseudomonas aeruginosa [9] = experiment: Atomic force microscope (AFM) experiment; type: cell-based; settings: 1 mM, 15 h contact (FIG. 5)
Method: Pseudomonas aeruginosa was inoculated in LB liquid, shaken and cultured at a constant temperature of 37° C. overnight, and the bacterial liquid was centrifuged, washed with sterile physiological saline twice, and mixed with physiological saline to form a bacterial suspension having a turbidity of 0.5 McFarland Standard (bacterial number was about 5×10^8-9 CFU/mL). The bacterial suspension was diluted with physiological saline 50-times. […] After contacting with medicines for 15 h, 1 mL culture solution was added in a sterile centrifuge tube and centrifuged at 10,000×g for 5 min. The supernatant liquid was discarded, and the obtained bacterial sample was washed with double distilled water twice, and suspended in double distilled water. A small volume of Pseudomonas aeruginosa suspension was taken and dropped on a cover slip carefully. After water was dried under atmospheric condition, the bacteria were observed by CP-Research type atom force microscope (U.S.A., Thermomicroscopes Co.) ([…] et al., Antimicro. Chemother. 1994, 34, 679-685; […] et al., Antimicro. Agents Chemother. 2000, 44, 682-687; Nickel et al., Urology 1986, 135, 586-588).

[10] = system: BF of Pseudomonas aeruginosa; experiment: Scanning electron microscopy (SEM) experiment, biofilm (BF) formation; type: cell-based; settings: 1 mM; early BF 3rd day, mature BF 7th day (FIG. 6, 7)
Method: Pseudomonas aeruginosa was inoculated in LB liquid, and cultured at a constant temperature of 37° C. in a shaker overnight, and the bacterial liquid was centrifuged, washed with sterile physiological saline twice, and mixed with physiological saline to form a bacterial suspension having a turbidity of 0.5 McFarland Standard (bacterial number was about 5×10^8-9 CFU/mL). The bacterial suspension was diluted with physiological saline 50-times. A biofilm (BF) carrier was placed in a tube containing 2 mL of the bacterial liquid, and the culturing was conducted at 37° C. […] Medium was replaced every other two days. The formation of BF was observed by using Quanta 400 thermal field emission scanning electron microscope (FEI Company). The carrier adhered with BF was washed with sterile physiological saline to remove floating bacteria, fixed with 2.5% glutaral, immersed in pH 7.4 PBS for three times, dewatered in turn with 50%, 70%, 80% and 90% ethanol once, then dewatered with 100% ethanol twice and with tert-butanol twice, 5 min for each time, and lyophilized for 5 h. The surface of carrier was plated with gold under vacuum.

[11] = system: suspended Pseudomonas aeruginosa; experiment: Experiment of combination with antibiotics; type: cell-based; settings: Pseudomonas aeruginosa cultured 15 h, OD600; ciprofloxacin 0.017 μg/mL, erythromycin 3.75 μg/mL, Andro 350 μg/mL, AL-1 538 μg/mL (1 μmol/mL)
[12] = system: rats with STZ-induced diabetes mellitus; experiment: Therapeutical effects on STZ-induced diabetes mellitus in rats
Method: 30 Female SD rats, 180-220 g, fasted for 16 h, were subjected to intraperitoneal injection of 60 mg/kg of STZ (purchased from Sigma Company). After 72 h, blood samples were collected from the rats by cutting their tails after fasting 16 h, and blood glucose values were measured by using a blood glucose analyzer (Johnson & Johnson Company). […] Animals were weighed, orbital bleeded, and the sera were separated. According to the instructions of kit (Zhejiang Dongou Biotechnology Co., Ltd.), the contents of triglyceride and total cholesterol were measured. […] The rats of vehicle group were treated with an equivalent volume of solvent (20% DMSO in H2O). After being fasted for 16 h, the rats were weighed, and bleeded for the measurement of blood glucose, triglyceride and total cholesterol. The obtained data were processed by using one-factor analysis of variance (One-way ANOVA) followed by Student's t-test.

Compound	Inhibition zone diameter, Bacillus Subtilis (Bacillus subtilis)	Inhibition zone diameter, Candida albicans (Candida albicans)	Inhibition zone diameter, E. coli (E. coli)	Inhibition zone diameter, Pseudomonas aeruginosa (Pseudomonas aeruginosa [1])	Inhibition zone diameter, Staphylococcus aureus MRSA 5676 [2]	Inhibition zone diameter, Staphylococcus aureus MRSA 5677 [3]	Inhibition zone diameter, Staphylococcus aureus Wild type [4]	inhibition of the growth of Pseudomonas aeruginosa (growth curve, A600) (Pseudomonas aeruginosa [5])	inhibition of the secretion of pyocyanin [6]	inhibition of the production/activity of extracellular protease [7]	other results
C=C1CCC2[C@@](C)(CC[C@@H](O)[C@@]2(C)CO)C1C/C=C1/C(=O)OCC1O (stereo partly drawn) [Andro, Andrographolide]	^b (incompetence (inhibition zone diameter <4 mm))	^b (incompetence (inhibition zone diameter <4 mm))	^b (incompetence (inhibition zone diameter <4 mm))	^b (incompetence (inhibition zone diameter <4 mm))	^b (incompetence (inhibition zone diameter <4 mm))	^b (incompetence (inhibition zone diameter <4 mm))	^b (incompetence (inhibition zone diameter <4 mm))	weak antibacterial activity	AL-1>Andro>ANO	AL-1>ANO>Andro	IC50 (L1210 leukemia cells; L1210, 48 h): 28.7 ± 6.19 µM; IC50 (macrophages): 5.6 ± 0.7 µM; inhibition of growth (MCF-7 breast cancer): about 50%; inhibition of growth of melanoma (B16F0 melanoma): 39%; inhibition of growth of colon cancer (HT-29 human colon cancer): 52%
C=C1CCC2[C@](C)(CO)[C@H](O)CC[C@@]2(C)[C@@H]1C/C=C1/C(=O)OCC1OC(=O)CCCCC1CCSS1 (stereo partly drawn) [AL-1, 14-lipoyl-3,19-dihydroxy-andrographolide]	^b (incompetence (inhibition zone diameter <4 mm))	^b (incompetence (inhibition zone diameter <4 mm))	^b (incompetence (inhibition zone diameter <4 mm))	^b (incompetence (inhibition zone diameter <4 mm))	6.9 ± 0.80 mm	4.1 ± 0.77 mm	4.9 ± 0.81 mm	significantly inhibited the growth of bacteria	AL-1>Andro>ANO	AL-1>ANO>Andro	cytotoxicity relative to andrographolide (L1210 leukemia cells; L1210 cells): 3 times; IC50 (L1210 leukemia cells; L1210 cells, 48 h, MTT, read-out: IC50): 8.04 ± 1.92 µM; effect on cell cycle / apoptosis of L1210 cells (L1210 cells): arrest L1210 cells at G1 prophase; MIC, Wild type [8]: 1000; MIC, MRSA5676 (MRSA5676): 1000; MIC, MRSA5677 (MRSA5677): 1000; growth morphology of Pseudomonas aeruginosa under AFM (Pseudomonas aeruginosa [9]): did not form a confertim bacterial colony; formation of early and mature BF of Pseudomonas aeruginosa under SEM [10]: able to destroy the BF of Pseudomonas aeruginosa; Survival Rate [11]: 84%; reduction of blood glucose level ([12]; AL-1 160 mg/kg, 7 days): about 66%; Blood glucose ([12]; Day 0, before treatment): 19.53 ± 1.90 mmol/L; Body weight ([12]; Day 0, before treatment): 214.33 ± 9.81 g; Total cholesterol ([12]; Day 0, before treatment): 3.39 ± 0.59 mmol/L; Total triglyceride ([12]; Day 0, before treatment): 6.28 ± 0.78 mmol/L
